target: Dipeptidyl peptidase 2 (Homo sapiens, UniProt Q9UHL4); test: Inhibitory concentration against human Dipeptidylpeptidase II

Compound	IC50 [µM]
O=C(CNCc1ccccc1)N1CCCC1	500
O=C(CNCc1ccccc1)N1CCCCC1	397
O=C(CNC1CCCCC1)N1CCCCC1	177
O=C(CNC1CCCCC1)N1CCCC1	276
N#CC1CCC/C1=C(/F)CNC12CC3CC(CC(C3)C1)C2 (centres undefined)	> 100
N#CC1CCC/C1=C(\F)CNC12CC3CC(CC(C3)C1)C2 (centres undefined)	> 100
FC(CNC1CCCCC1)=C1CCCCC1	500

target: Dipeptidyl peptidase 4 (Homo sapiens, UniProt P27487); test: Inhibitory concentration against human Dipeptidylpeptidase IV
Sequence (P27487 whole entry): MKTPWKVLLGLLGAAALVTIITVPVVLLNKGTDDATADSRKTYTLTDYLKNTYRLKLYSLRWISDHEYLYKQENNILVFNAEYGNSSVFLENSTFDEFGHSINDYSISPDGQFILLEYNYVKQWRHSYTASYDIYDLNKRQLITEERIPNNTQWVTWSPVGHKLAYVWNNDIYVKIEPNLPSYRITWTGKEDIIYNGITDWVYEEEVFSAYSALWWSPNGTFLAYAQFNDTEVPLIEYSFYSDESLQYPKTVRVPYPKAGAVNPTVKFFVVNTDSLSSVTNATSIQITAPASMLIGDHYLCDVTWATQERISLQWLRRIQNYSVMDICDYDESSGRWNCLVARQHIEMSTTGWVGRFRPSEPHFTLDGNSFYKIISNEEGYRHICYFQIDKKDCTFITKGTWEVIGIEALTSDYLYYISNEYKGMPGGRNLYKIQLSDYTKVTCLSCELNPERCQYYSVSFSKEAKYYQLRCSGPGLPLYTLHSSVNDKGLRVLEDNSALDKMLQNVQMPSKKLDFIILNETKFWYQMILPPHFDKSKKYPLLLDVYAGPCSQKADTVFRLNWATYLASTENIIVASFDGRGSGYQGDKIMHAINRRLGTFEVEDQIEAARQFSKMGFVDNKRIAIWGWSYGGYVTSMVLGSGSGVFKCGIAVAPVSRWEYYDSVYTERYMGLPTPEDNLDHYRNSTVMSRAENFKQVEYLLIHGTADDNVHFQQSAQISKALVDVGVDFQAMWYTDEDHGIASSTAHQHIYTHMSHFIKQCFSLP

Compound	IC50 [µM]
N#CC1CCC/C1=C(/F)CNCc1ccc(F)cc1 (centres undefined)	> 1000
O=C(CNCc1ccccc1)N1CCCC1	1000
FC(CNc1ccccc1)=C1CCCCC1	> 250
S=C(CNCc1ccccc1)N1CCCCC1	> 1000
FC(CNCCc1ccccc1)=C1CCCCC1	> 1000
N#CC1CCC/C1=C(\F)CNCc1ccc(F)cc1 (centres undefined)	> 500
S=C(CNC1CCCCC1)N1CCCCC1	> 1000
CN(C)CCCNCC(F)=C1CCCCC1	> 1000
S=C(CNCc1ccc2c(c1)OCO2)N1CCCCC1	> 1000
FC(CNCCc1ccccc1)=C1CCCC1	> 1000
C(CNC1CCCCC1)=C1CCCC1	> 1000
FC(CNCCc1ccccn1)=C1CCCC1	> 1000
CN1CCC(NCC(F)=C2CCCCC2)CC1	> 125
FC(CNCc1ccccc1)=C1CCCCC1	> 1000
O=C(CNCc1ccccc1)N1CCCCC1	> 1000
FC(CNC1CCNCC1)=C1CCCCC1	> 1000
FC(CNC1CCCCC1)=C1CCCC1	> 1000
N#CC1CCC/C1=C(/F)CNCCc1ccccc1 (centres undefined)	> 500
C(CNCc1ccccc1)=C1CCCC1	> 1000

Compound	IC50 [µM]
O=C(CNCc1ccc2c(c1)OCO2)N1CCCC1	> 1000
O=C(CNC1CCCCC1)N1CCCCC1	> 1000
O=C(CNC1CCCCC1)N1CCCC1	148
C(CNCc1ccc2c(c1)OCO2)=C1CCCC1	> 250
FC(CNC12CC3CC(CC(C3)C1)C2)=C1CCCCC1	> 250
CN(C)CCCNCC(F)=C1CCCC1	> 1000
FC(CNCc1ccc(F)cc1)=C1CCCC1	> 1000
FC(CNCc1ccc2c(c1)OCO2)=C1CCCCC1	> 250
FC(CNCc1cccc(C(F)(F)F)c1)=C1CCCCC1	> 125
COc1ccc(CNCC(F)=C2CCCCC2)cc1	> 250
FC(CNC1CCCCC1)=C1CCCCC1	> 500
FC(CNC1CCN(Cc2ccccc2)CC1)=C1CCCC1	> 250
FC(CNCc1ccc(F)cc1)=C1CCCCC1	> 250
FC(CNC1CCN(Cc2ccccc2)CC1)=C1CCCCC1	> 250
N#CC1CCC/C1=C(\F)CNCCc1ccccc1 (centres undefined)	> 1000
FC(CNCc1ccccc1)=C1CCCC1	> 1000
COc1ccc(CNCC(F)=C2CCCC2)cc1	> 1000
O=C(CNCc1ccc2c(c1)OCO2)N1CCCCC1	> 1000

— ChEMBL document CHEMBL1142720, “Fluoro-olefins as peptidomimetic inhibitors of dipeptidyl peptidases” (J Med Chem, 2005)
